Legend:
TNF-alpha (h) = experiment: CEREP radioligand binding; parameters: species or system human; conditions: % of control specific binding
Description: (§1) SB-334867 was evaluated in a selectivity screen performed at CEREP (Paris, France). The screen consisted of binding assays on a panel of 79 target receptors. The specific binding (SB) of a radioligand to each target receptor was defined as the difference between the total binding and the nonspecific binding determined in the presence of a cold competitor in excess. […] Details on the CEREP screen are available from www.cerep.fr.

5-HT5A (h) = biological target: T1, 5-HT5A (h) (Homo sapiens, UniProt P47898); experiment: CEREP radioligand binding; conditions: % of control specific binding
T1 construct: purchased CEREP
T1 sequence (P47898 whole entry): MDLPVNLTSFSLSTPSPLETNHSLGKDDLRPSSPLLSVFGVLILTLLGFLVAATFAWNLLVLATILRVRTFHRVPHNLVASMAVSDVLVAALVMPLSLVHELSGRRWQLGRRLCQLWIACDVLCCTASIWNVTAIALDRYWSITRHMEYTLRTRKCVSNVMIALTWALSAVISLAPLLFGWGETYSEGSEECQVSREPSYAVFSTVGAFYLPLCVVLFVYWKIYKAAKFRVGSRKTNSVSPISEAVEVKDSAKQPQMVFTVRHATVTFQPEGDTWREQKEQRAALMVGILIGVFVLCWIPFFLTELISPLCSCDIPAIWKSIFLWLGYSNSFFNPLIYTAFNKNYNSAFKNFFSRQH
Description: as §1

sst (non-selective) = experiment: CEREP radioligand binding; conditions: % of control specific binding
Description: as §1

alpha 1 (non-selective) = experiment: CEREP radioligand binding; conditions: % of control specific binding
Description: as §1

M5 (h) = biological target: T2, M5 (h) (Homo sapiens, UniProt P08912); experiment: CEREP radioligand binding; conditions: % of control specific binding
T2 construct: purchased CEREP
T2 sequence (P08912 whole entry): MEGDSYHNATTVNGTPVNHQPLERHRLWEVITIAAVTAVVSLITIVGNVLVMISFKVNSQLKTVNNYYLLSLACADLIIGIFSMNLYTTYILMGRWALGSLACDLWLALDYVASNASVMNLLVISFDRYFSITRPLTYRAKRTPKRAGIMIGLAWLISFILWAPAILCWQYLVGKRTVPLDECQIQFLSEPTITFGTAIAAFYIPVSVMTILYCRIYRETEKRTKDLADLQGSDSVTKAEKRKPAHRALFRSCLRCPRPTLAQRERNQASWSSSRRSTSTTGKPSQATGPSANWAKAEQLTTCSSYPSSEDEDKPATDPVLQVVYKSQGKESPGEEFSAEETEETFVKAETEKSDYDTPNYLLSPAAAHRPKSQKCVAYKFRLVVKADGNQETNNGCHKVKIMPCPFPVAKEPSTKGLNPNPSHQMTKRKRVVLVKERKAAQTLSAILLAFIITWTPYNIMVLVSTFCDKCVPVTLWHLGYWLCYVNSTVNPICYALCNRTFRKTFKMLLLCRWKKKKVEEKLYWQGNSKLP
Description: as §1

B2 (h) = biological target: T3, B2 (h) (Homo sapiens, UniProt P30411); experiment: CEREP radioligand binding; conditions: % of control specific binding
T3 construct: purchased CEREP
T3 sequence (P30411 whole entry): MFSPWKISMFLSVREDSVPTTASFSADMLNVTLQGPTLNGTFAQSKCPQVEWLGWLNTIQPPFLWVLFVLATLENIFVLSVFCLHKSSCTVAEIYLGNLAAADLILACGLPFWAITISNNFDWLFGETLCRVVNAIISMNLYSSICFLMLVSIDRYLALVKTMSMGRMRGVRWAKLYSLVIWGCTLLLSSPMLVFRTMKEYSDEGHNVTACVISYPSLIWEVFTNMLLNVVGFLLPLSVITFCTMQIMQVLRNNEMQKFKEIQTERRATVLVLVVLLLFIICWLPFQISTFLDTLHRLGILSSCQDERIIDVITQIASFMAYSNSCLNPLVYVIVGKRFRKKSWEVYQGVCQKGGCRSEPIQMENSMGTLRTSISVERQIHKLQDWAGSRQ
Description: as §1

PCP = experiment: CEREP radioligand binding; conditions: % of control specific binding
Description: as §1

ETA (h) = biological target: T4, ETA (h) (Homo sapiens, UniProt P25101); experiment: CEREP radioligand binding; conditions: % of control specific binding
T4 construct: purchased CEREP
T4 sequence (P25101 21-427): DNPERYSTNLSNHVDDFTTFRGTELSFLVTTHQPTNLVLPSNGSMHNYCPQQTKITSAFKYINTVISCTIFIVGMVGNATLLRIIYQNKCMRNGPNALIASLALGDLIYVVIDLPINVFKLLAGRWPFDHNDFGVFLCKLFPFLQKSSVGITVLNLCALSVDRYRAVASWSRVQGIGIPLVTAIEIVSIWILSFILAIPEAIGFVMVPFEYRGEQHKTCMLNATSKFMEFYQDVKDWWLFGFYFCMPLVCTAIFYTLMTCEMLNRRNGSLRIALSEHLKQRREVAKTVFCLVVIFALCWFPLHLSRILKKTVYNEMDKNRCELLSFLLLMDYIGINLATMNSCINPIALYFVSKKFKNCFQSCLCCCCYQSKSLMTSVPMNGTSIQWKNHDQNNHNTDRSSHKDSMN
Description: as §1

BB (non-selective) = experiment: CEREP radioligand binding; conditions: % of control specific binding
Description: as §1

D1 (h) = biological target: T5, D1 (h) (Homo sapiens, UniProt P21728); experiment: CEREP radioligand binding; conditions: % of control specific binding
T5 construct: purchased CEREP
T5 sequence (P21728 whole entry): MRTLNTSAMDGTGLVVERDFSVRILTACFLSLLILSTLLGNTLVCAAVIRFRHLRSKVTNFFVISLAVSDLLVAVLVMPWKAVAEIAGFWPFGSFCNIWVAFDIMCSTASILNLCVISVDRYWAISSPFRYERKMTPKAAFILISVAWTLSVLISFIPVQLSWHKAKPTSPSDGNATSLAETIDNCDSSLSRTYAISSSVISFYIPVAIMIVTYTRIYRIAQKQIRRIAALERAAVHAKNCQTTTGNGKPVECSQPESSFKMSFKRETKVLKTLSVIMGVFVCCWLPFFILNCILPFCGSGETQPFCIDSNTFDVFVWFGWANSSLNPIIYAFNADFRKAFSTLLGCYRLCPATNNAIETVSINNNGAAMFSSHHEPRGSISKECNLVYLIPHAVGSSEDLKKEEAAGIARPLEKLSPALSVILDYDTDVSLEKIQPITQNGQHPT
Description: as §1

HCRTR2 = biological target: T6, HCRTR2 (Rattus norvegicus, UniProt P56719); experiment: HCRTR2 occupancy, [^3H]EMPA autoradiography of brain sections; format: in vivo; conditions: 30 mg/kg ip; for receptor occupancy at 30 mg/kg: rat, ip, 12 h
T6 construct: from tissue; host or cells: coronal brain sections of male Sprague-Dawley rats (TMN, DRN, CC, CA3, RSC, Pn)
T6 sequence (P56719 1-460): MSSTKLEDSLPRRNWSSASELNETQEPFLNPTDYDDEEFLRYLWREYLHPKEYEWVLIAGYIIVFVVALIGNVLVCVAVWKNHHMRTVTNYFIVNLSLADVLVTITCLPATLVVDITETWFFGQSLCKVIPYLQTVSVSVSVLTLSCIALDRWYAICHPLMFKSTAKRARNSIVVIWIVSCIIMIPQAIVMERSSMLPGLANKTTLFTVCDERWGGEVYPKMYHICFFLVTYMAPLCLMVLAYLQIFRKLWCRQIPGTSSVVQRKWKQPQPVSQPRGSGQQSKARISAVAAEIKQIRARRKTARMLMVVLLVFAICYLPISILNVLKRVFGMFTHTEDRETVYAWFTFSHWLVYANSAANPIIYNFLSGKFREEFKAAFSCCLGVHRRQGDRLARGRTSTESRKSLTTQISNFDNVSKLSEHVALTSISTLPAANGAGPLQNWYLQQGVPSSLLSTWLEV

rHCRTR1 = biological target: T7, rHCRTR1 (Rattus norvegicus, UniProt P56718); experiment: Inhibition of [^3H]almorexant binding to HEK293-rHCRTR1 membranes
T7 construct: expressed in transfected cells; host or cells: HEK293 (transient transfection, pCI-Neo vector), membrane preparation
T7 sequence (P56718 1-416): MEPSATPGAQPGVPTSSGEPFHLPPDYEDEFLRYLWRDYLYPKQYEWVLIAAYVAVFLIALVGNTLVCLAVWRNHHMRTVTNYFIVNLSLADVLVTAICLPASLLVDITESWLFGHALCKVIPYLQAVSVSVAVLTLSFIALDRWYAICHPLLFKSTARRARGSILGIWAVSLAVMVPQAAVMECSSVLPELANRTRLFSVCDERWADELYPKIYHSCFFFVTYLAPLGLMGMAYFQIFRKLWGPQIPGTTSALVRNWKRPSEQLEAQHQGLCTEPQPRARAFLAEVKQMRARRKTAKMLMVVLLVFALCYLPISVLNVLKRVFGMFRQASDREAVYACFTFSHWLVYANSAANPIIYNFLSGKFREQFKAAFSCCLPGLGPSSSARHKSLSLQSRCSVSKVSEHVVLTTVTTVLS
Description: (§2) The rat cDNAs encoding HCRTR1 (Accession No. P56718) and HCRTR2 (Accession No. P56719) were subcloned into pCI-Neo expression vectors (Promega, Madison, WI) and used to transfect HEK293 cells (acquired commercially from ATCC-LGC, Molsheim, France) as previously described.

HCRTR1 = biological target: T8, HCRTR1 (Rattus norvegicus, UniProt P56718); experiment: in vivo; format: in vivo
T8 construct: from tissue; host or cells: coronal brain sections of male Sprague-Dawley rats (locus coeruleus)
T8 sequence (P56718 1-416): T7 sequence (P56718 1-416)

rHCRTR2 = biological target: T9, rHCRTR2 (Rattus norvegicus, UniProt P56719); experiment: Inhibition of [^3H]almorexant binding to HEK293-rHCRTR2 membranes
T9 construct: expressed in transfected cells; host or cells: HEK293 (transient transfection, pCI-Neo vector), membrane preparation
Description: as §2

## Cc1nc2ccc(NC(=O)Nc3ccnc4cccnc34)cc2o1.Cl [SB-334867, 1-(2-methylbenzoxazol-6-yl)-3-[1], [5]naphthyridin-4-yl-urea hydrochloride]
TNF-alpha (h)
  % Control (10 µM) Mean SB: 96.8%
5-HT5A (h)
  % Control (10 µM) Mean SB: 84.1%
Sst (non-selective)
  % Control (10 µM) Mean SB: 88.9%
Alpha 1 (non-selective)
  % Control (10 µM) Mean SB: 87.5%
M5 (h)
  % Control (10 µM) Mean SB: 103.3%
B2 (h)
  % Control (10 µM) Mean SB: 97%
PCP
  % Control (10 µM) Mean SB: 91.8%
ETA (h)
  % Control (10 µM) Mean SB: 97.3%
BB (non-selective)
  % Control (10 µM) Mean SB: 109.9%
D1 (h)
  % Control (10 µM) Mean SB: 82.7%

## CNC(=O)[C@@H](c1ccccc1)N1CCc2cc(OC)c(OC)cc2[C@@H]1CCc1ccc(C(F)(F)F)cc1 [almorexant, (2R)-2-[(1S)-6,7-Dimethoxy-1-[2-(4-trifluoromethyl-phenyl)-ethyl]-3,4-dihydro-1H-isoquinolin-2-yl]-N-methyl-2-phenyl-acetamide]
HCRTR2; all 6 structures, within 30 min, maximal at 2 h and 4 h
  HCRTR2 RO: ~100%
HCRTR2; CA3
  receptor occupancy at 30 mg/kg: 58.4 ± 11.5%
HCRTR2; CC
  receptor occupancy at 30 mg/kg: 66.1 ± 11.6%
HCRTR2; DRN
  receptor occupancy at 30 mg/kg: 57.7 ± 10.5%
HCRTR2; Pn
  receptor occupancy at 30 mg/kg: 67.2 ± 13.9%
HCRTR2; RSC
  receptor occupancy at 30 mg/kg: 64.6 ± 10.7%
HCRTR2; TMN
  receptor occupancy at 30 mg/kg: 49.2 ± 13.2%
rHCRTR1
  Ki: 7.1 ± 0.7 nM
HCRTR1; in vivo
  HCRTR1 RO: 50–60%
  HCRTR1 RO (in words): returned to basal levels
  HCRTR1 RO, maximum: 59%
HCRTR1; ip, read-out: HCRTR1 occupancy
  receptor occupancy at 30 mg/kg: ~50%
rHCRTR2
  Ki: 2 nM
